Reference: paper PMC3632285 (Journal of controlled release : official journal of the …, 2013)

Experiments:
[1] = system: human airway epithelial cells (Calu-3); test: MTT cytotoxicity study in Calu-3 cells; assay type: cell-based; details: 0.1% w/v, positive control, cell line not specified in the sentence (Fig. 6A)
[2] = In-vitro drug release in dialysis cassettes, PBS pH 7.4, 37°C; assay type: physicochemical; details: plain drug control in dialysis cassette, data not shown
in vivo = details: male, Sprague-Dawley, rat, 10 mg/kg
[3] = cited from earlier work
[4] = system: monocrotaline (MCT)-induced PAH rats; test: Hemodynamic studies in monocrotaline; assay type: in vivo, Sprague-Dawley rats; details: 3 mg/kg
PAH patients = details: dose of 30 or 40 mg; cited from earlier work
[5] = various storage conditions; cited from earlier work

Question: Which Cell viability [1] does the source give for CCCCCCCCCCCCOS(=O)(=O)[O-].[Na+] [SDS, sodium dodecyl sulfate] here?
Answer: Its Cell viability is 15%.

Question: What does the source list for O=S(=O)(c1cccc2cnccc12)N1CCCNCC1 [fasudil]?
Answer: Drug released in the media [2]: 100%; bioavailability (in vivo; Bioavailability (relative)): ~40%; AUC(0-t) (in vivo; inhaled or intranasal): 2.33 ng·h/mL; Cmax (in vivo; inhaled or intranasal): 66.2 ± 13.6 ng/mL; AUC(0-t) (in vivo; iv): 5.71 ng·h/mL; Cmax (in vivo; iv): 298 ± 10 ng/mL; pKa [3]: 9.727; Decrease in MPAP (maximal) ([4]; intratracheal): 38.3±7.3%; Reduction in MSAP ([4]; intratracheal): 38.1±10.8%; Decrease in MPAP (maximal) ([4]; intravenous): 45.6±17.0%; Duration of pulmonary vasodilatory effects (15% reduction in MPAP as baseline) ([4]; intravenous): 50.0 ± 10.4 min; Reduction in MSAP ([4]; intravenous): 45.6±8.4%; Duration of pulmonary vasodilatory effects (15% reduction in MPAP as baseline) ([4]; pulmonary (intratracheal)): 60.0 ± 15.3 min; Effect on MPAP in PAH patients (PAH patients): effective in reducing MPAP; Time over which the drug is stable [5]: ~ 24 weeks
